Measured values published in patent publication EP0565593B1, “REDUCING PESTICIDAL INTERACTIONS IN CROPS” (priority 1990, dated 1992).

Assays:
Assay type in all cases: in vivo
[1] = test system: Giant foxtail (GIFT); experiment: Greenhouse test Procedure VII (same examples)
Excerpt: This procedure describes interaction among herbicide, biocide and antidote when the biocide and the antidote is applied to a soil furrow containing crop seed before emergence of the crop and the herbicide is applied after emergence of the crop and weeds. The soil and planting depth was described in Procedure IV. The containers for comparison, the biocide and antidote applications to soil furrows were described in Procedure VI. In this procedure, the seed beds of the first, second, third and fourth containers are covered by soil layers not treated with herbicide. The containers were then placed on a bench in a greenhouse and subirrigated as required for the duration of the test. The herbicide, dispersed or dissolved in water containing 0.25% v/v nonionic surfactant (X-77) was applied by a track sprayer (187 L/ha) to the emerged plants of the second, third and fourth containers about five days after planting. All treatments were run in duplicate. Plant response was observed according to Procedure IV. Variations in this procedure will be noted in the examples.
In these tests (according to Procedure VII) the safeners in solution with acetone were applied in furrow to the soil, followed by COUNTER 15G granules at 227 g/305 m (8 oz./1000'). Applications were made in alternate rows in two separate 13.7 cm x 27.7 cm pans containing Dupo silt loam. Pans were seeded 1.3 cm deep, placed on benches in a greenhouse and subirrigated. BEACON was formulated in water with 0.25% v/v X-77 surfactant and applied by track sprayer at a rate of 187 L/Ha (20 gal/A). Weed species in this test were giant foxtail, shattercane and velvetleaf. The herbicide was applied five (5) days after PPI initiation and observation of test result (shown in Table 47) made eight (8) days later.
In Table 47 COUNTER 15G is abbreviated as "C" and the antidotes as "A" in the column headings which indicate the "C + A" ratios used in the tests. Control and COUNTER treatments are average of four (4) replications and COUNTER + Antidote treatments, average of 2 reps.

[2] = test system: wheat (WHEA); experiment: Multi-crop greenhouse test, soil-applied (Examples 65, 66; Tables 64, 65); set-up: inhibition: dose or concentration left out as unconfirmed; details: for inhibition / inhibition at 18 g/ha / inhibition at 70 g/ha / inhibition at 280 g/ha: Triticum aestivum; for inhibition at 18 g/ha: Herb. No. 1 0.018 Kg/Ha alone; for inhibition at 70 g/ha: Herb. No. 1 0.07 Kg/Ha alone; for inhibition at 280 g/ha: Herb. No. 1 0.28 Kg/Ha alone
Summary of the method: (§1)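 Dupo silt loam pans, seeds 1.3 cm deep; safener (acetone) + COUNTER 15G granules mixed into cover soil; subirrigated. MON-12000 run: herbicide POE day 6, light overhead irrigation days 4–7, injury scored 10 d later. XRD-498 run: all three components applied together to covers. Mean of 2 reps.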

[3] = test system: Corn; experiment: as above; set-up: inhibition: dose or concentration left out as unconfirmed; details: for inhibition / inhibition at 18 g/ha / inhibition at 70 g/ha / inhibition at 280 g/ha: Zea mays; for inhibition at 18 g/ha: Herb. No. 1 0.018 Kg/Ha alone; for inhibition at 70 g/ha: Herb. No. 1 0.07 Kg/Ha alone; for inhibition at 280 g/ha: Herb. No. 1 0.28 Kg/Ha alone
Summary of the method: as §1

[4] = test system: grain sorghum (GRSO); experiment: as above; set-up: inhibition: dose or concentration left out as unconfirmed; details: for inhibition / inhibition at 18 g/ha / inhibition at 70 g/ha / inhibition at 280 g/ha: Sorghum; for inhibition at 18 g/ha: Herb. No. 1 0.018 Kg/Ha alone; for inhibition at 70 g/ha: Herb. No. 1 0.07 Kg/Ha alone; for inhibition at 280 g/ha: Herb. No. 1 0.28 Kg/Ha alone
Summary of the method: as §1

[5] = Antidote + Biocide No. 1 in furrow, Herbicide No. 1 0.14 Kg/Ha POE, 8 days after POE
[6] = Antidote + Biocide No. 1 in furrow, Herbicide No. 4 0.17 Kg/Ha POE, 8 days after POE
[7] = Antidote + Biocide No. 1 in furrow, Herbicide No. 5 0.07 Kg/Ha POE, 8 days after POE
[8] = Antidote + Biocide No. 1 in furrow, Herbicide No. 6 0.01 Kg/Ha POE
[9] = Antidote + Biocide No. 1 in furrow, Herbicide No. 7 0.56 Kg/Ha POE, 8 days after POE
[10] = Antidote + Biocide No. 1 in furrow, Herbicide No. 9 0.009 Kg/Ha POE
[11] = Antidote + Biocide No. 1 in furrow, Herbicide No. 10 0.002 Kg/Ha POE, 8 days after POE
[12] = Antidote + Biocide No. 1 in furrow, Herbicide No. 15 0.0044 Kg/Ha POE, 8 days after POE
[13] = Antidote + Biocide No. 1 in furrow, Herbicide No. 16 0.01 Kg/Ha POE
[14] = Antidote + Biocide No. 1 in furrow, Herbicide No. 18 0.0044 Kg/Ha POE
[15] = Antidote + Biocide No. 1 in furrow, Herbicide No. 19 0.28 Kg/Ha POE
[16] = Antidote + Biocide No. 1 in furrow, Herbicide No. 21 0.14 Kg/Ha POE
[17] = Antidote + Biocide No. 1 in furrow, Herbicide No. 23 0.0006 Kg/Ha POE
[18] = Table 64, Herb. No. 1 0.018 Kg/Ha + Biocide No. 1 8.96 Kg/Ha + Antidote 4.48 Kg/Ha
[19] = Table 64, Herb. No. 1 0.07 Kg/Ha + Biocide No. 1 8.96 Kg/Ha + Antidote 4.48 Kg/Ha
[20] = Table 64, Herb. No. 1 0.28 Kg/Ha + Biocide No. 1 8.96 Kg/Ha + Antidote 4.48 Kg/Ha
[21] = Table 65, Herb. No. 1 0.018 Kg/Ha + Biocide No. 1 8.96 Kg/Ha + Antidote 4.48 Kg/Ha
[22] = Table 65, Herb. No. 1 0.07 Kg/Ha + Biocide No. 1 8.96 Kg/Ha + Antidote 4.48 Kg/Ha
[23] = Table 65, Herb. No. 1 0.28 Kg/Ha + Biocide No. 1 8.96 Kg/Ha + Antidote 4.48 Kg/Ha
[24] = Table 64, Herb. No. 1 0.018 Kg/Ha + Biocide No. 1 8.96 Kg/Ha
[25] = Table 64, Herb. No. 1 0.07 Kg/Ha + Biocide No. 1 8.96 Kg/Ha
[26] = Table 64, Herb. No. 1 0.28 Kg/Ha + Biocide No. 1 8.96 Kg/Ha
[27] = Table 65, Herb. No. 1 0.018 Kg/Ha + Biocide No. 1 8.96 Kg/Ha
[28] = Table 65, Herb. No. 1 0.07 Kg/Ha + Biocide No. 1 8.96 Kg/Ha
[29] = Table 65, Herb. No. 1 0.28 Kg/Ha + Biocide No. 1 8.96 Kg/Ha

COC(=O)COC(c1ccccc1)c1ccccc1 [compound 12]
% Inhibition GIFT [1, 5]: 0% | % Inhibition GIFT [1, 6]: 0% | % Inhibition GIFT [1, 7]: 0% | % Inhibition GIFT [1, 8]: 50% | % Inhibition GIFT [1, 9]: 85% | % Inhibition GIFT [1, 10]: 10% | % Inhibition GIFT [1, 11]: 0% | % Inhibition GIFT [1, 12]: 0% | % Inhibition GIFT [1, 13]: 20% | % Inhibition GIFT [1, 14]: 60% | % Inhibition GIFT [1, 15]: 35% | % Inhibition GIFT [1, 16]: 25% | % Inhibition GIFT [1, 17]: 25% | % Inhibition WHEA [2, 18]: 0% | % Inhibition WHEA [2, 19]: 0% | % Inhibition WHEA [2, 20]: 0% | % Inhibition WHEA [2, 21]: 0% | % Inhibition WHEA [2, 22]: 0% | % Inhibition WHEA [2, 23]: 20% | % Inhibition Corn [3, 18]: 0% | % Inhibition Corn [3, 19]: 10% | % Inhibition Corn [3, 20]: 10% | % Inhibition Corn [3, 21]: 0% | % Inhibition Corn [3, 22]: 0% | % Inhibition Corn [3, 23]: 20% | % Inhibition GRSO [4, 18]: 0% | % Inhibition GRSO [4, 19]: 15% | % Inhibition GRSO [4, 20]: 0% | % Inhibition GRSO [4, 21]: 0% | % Inhibition GRSO [4, 22]: 20% | % Inhibition GRSO [4, 23]: 55%

COC(=O)c1c(Cl)nn(C)c1S(=O)(=O)NC(=O)Nc1nc(OC)cc(OC)n1 [Herbicide No. 1, N-[(4,6-dimethoxypyrimidin-2-yl)aminocarbonyl]-3-chloro-4-methoxycarbonyl-5-sulfonamide, reference compound]
inhibition [2, 24]: 0% | inhibition at 18 g/ha ([2]; Table 64): 0% | inhibition [2, 25]: 0% | inhibition at 70 g/ha ([2]; Table 64): 0% | inhibition [2, 26]: 35% | inhibition at 280 g/ha ([2]; Table 64): 0% | inhibition [2, 27]: 0% | inhibition at 18 g/ha ([2]; Table 65): 0% | inhibition [2, 28]: 0% | inhibition at 70 g/ha ([2]; Table 65): 0% | inhibition [2, 29]: 85% | inhibition at 280 g/ha ([2]; Table 65): 0% | inhibition [3, 24]: 0% | inhibition at 18 g/ha ([3]; Table 64): 0% | inhibition [3, 25]: 10% | inhibition at 70 g/ha ([3]; Table 64): 0% | inhibition [3, 26]: 60% | inhibition at 280 g/ha ([3]; Table 64): 10% | inhibition [3, 27]: 0% | inhibition at 18 g/ha ([3]; Table 65): 0% | inhibition [3, 28]: 0% | inhibition at 70 g/ha ([3]; Table 65): 0% | inhibition [3, 29]: 75% | inhibition at 280 g/ha ([3]; Table 65): 10% | inhibition [4, 24]: 0% | inhibition at 18 g/ha ([4]; Table 64): 0% | inhibition [4, 25]: 15% | inhibition at 70 g/ha ([4]; Table 64): 0% | inhibition [4, 26]: 15% | inhibition at 280 g/ha ([4]; Table 64): 20% | inhibition [4, 27]: 15% | inhibition at 18 g/ha ([4]; Table 65): 0% | inhibition [4, 28]: 20% | inhibition at 70 g/ha ([4]; Table 65): 40% | inhibition [4, 29]: 85% | inhibition at 280 g/ha ([4]; Table 65): 80%

N#CCOc1ccc(Cl)c2cccnc12 [compound 33]
% Inhibition GIFT [1, 5]: 0% | % Inhibition GIFT [1, 6]: 0% | % Inhibition GIFT [1, 7]: 0% | % Inhibition GIFT [1, 8]: 65% | % Inhibition GIFT [1, 9]: 80% | % Inhibition GIFT [1, 10]: 25% | % Inhibition GIFT [1, 11]: 0% | % Inhibition GIFT [1, 12]: 0% | % Inhibition GIFT [1, 13]: 30% | % Inhibition GIFT [1, 14]: 65% | % Inhibition GIFT [1, 15]: 35% | % Inhibition GIFT [1, 16]: 30% | % Inhibition GIFT [1, 17]: 25%

CC1(C)OC(c2ccco2)CN1C(=O)C(Cl)Cl (centres unmarked) [compound 1]
% Inhibition GIFT [1, 5]: 0% | % Inhibition GIFT [1, 6]: 0% | % Inhibition GIFT [1, 7]: 0% | % Inhibition GIFT [1, 8]: 60% | % Inhibition GIFT [1, 9]: 85% | % Inhibition GIFT [1, 10]: 30% | % Inhibition GIFT [1, 11]: 0% | % Inhibition GIFT [1, 12]: 20% | % Inhibition GIFT [1, 13]: 35% | % Inhibition GIFT [1, 14]: 65% | % Inhibition GIFT [1, 15]: 35% | % Inhibition GIFT [1, 16]: 35% | % Inhibition GIFT [1, 17]: 20% | % Inhibition GIFT ([1]; Herbicide No. 1 0.14 Kg/Ha POE + Biocide No. 1 in furrow, no antidote, 8 days after POE): 0% | % Inhibition GIFT ([1]; Herbicide No. 1 0.14 Kg/Ha POE alone, 8 days after POE): 0% | % Inhibition WHEA [2, 18]: 0% | % Inhibition WHEA [2, 19]: 0% | % Inhibition WHEA [2, 20]: 0% | % Inhibition WHEA [2, 21]: 10% | % Inhibition WHEA [2, 22]: 25% | % Inhibition WHEA [2, 23]: 70% | % Inhibition Corn [3, 18]: 5% | % Inhibition Corn [3, 19]: 15% | % Inhibition Corn [3, 20]: 10% | % Inhibition Corn [3, 21]: 0% | % Inhibition Corn [3, 22]: 5% | % Inhibition Corn [3, 23]: 20% | % Inhibition GRSO [4, 18]: 0% | % Inhibition GRSO [4, 19]: 0% | % Inhibition GRSO [4, 20]: 0% | % Inhibition GRSO [4, 21]: 0% | % Inhibition GRSO [4, 22]: 25% | % Inhibition GRSO [4, 23]: 65%
